According to US11046681B2, “Substituted piperidines for the treatment of cancer” (LES LABORATOIRES SERVIER, priority 2016, dated 2021):

Legend:
[1] = system: MM1S multiple myeloma tumour cell line; assay: In vitro cytotoxicity, Microculture Tetrazolium Assay (MTT) on MM1S cells; type: cell-based; details: Homo sapiens, MM1.S, exposed for 96 hours, cell viability by MTT
Procedure: The cytotoxicity studies were carried out on the MM1S multiple myeloma tumour cell line. The cells are distributed onto microplates and exposed to the test compounds for 96 hours. The cell viability is then quantified by a colorimetric assay, the Microculture Tetrazolium Assay (Cancer Res., 1987, 47, 939-942).

[2] = biological target: His-His-USP7 (aa208-560, [C315A]) (Homo sapiens (Human), UniProt Q93009, C315A); assay: Evaluation of the inhibition of USP7 by Fluorescence Intensity (FLINT) readings; type: biochemical; details: 0.25 nM USP7, 60 minutes at 30° C. preincubation, 500 nM Ubiquitin-Rhodamine-110 substrate, 50% reduction in kinetic rate
Procedure: USP7 activity was measured using Rhodamine-110 c-terminal labelled Ubiquitin as a substrate (Viva Biosciences). Incubation with USP7 results in the release of Rhodamine-110 leading to an increase in fluorescence which can be used in the continuous measurement of USP7 activity.
The USP7 reactions were performed in a 50 μL volume, in 384 well black solid low binding plates (Corning #3575). The reaction buffer consisted of 100 mM Bicine pH 8.0, 0.01% TritonX100, 1 mM TCEP, and 10% DMSO.
0.25 nM His-His-USP7 (aa208-560, [C315A]) was incubated with compound (final concentration 10% DMSO) for 60 minutes at 30° C. The reaction was then initiated by the addition of 500 nM Ubiquitin-Rhodamine-110 substrate and the plate read every 3 minutes for 21 minutes to measure the release of Rhodamine-110. Fluorescence Intensity (FLINT) readings were measured using a […] Neo plate reader (Ex.485 nm, Em.535 nm).
The inhibition of increasing doses of compound was expressed as a percentage reduction in kinetic rate compared to the kinetic rates established between ‘DMSO only’ and ‘total inhibition’ controls (no USP7). The inhibitory concentrations that gave a 50% reduction in kinetic rate (IC50) were determined, from 11-point dose response curves, in XL-Fit using a 4-Parameter Logistic Model (Sigmoidal Dose-Response Model).

Chain of His-His-USP7 (aa208-560, [C315A]) (Q93009 208-560 C315A): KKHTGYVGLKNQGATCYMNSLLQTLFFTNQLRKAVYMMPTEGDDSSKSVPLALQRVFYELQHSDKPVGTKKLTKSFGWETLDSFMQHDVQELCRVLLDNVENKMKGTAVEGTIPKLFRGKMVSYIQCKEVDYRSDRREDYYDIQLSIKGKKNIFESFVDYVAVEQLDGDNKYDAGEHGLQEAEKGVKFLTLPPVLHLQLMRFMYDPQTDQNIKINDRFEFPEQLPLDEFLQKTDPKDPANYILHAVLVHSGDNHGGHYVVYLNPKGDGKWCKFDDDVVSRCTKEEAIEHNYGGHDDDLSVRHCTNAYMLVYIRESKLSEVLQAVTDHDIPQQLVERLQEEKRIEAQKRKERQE

Row | SMILES | IC50 [2] [nM] | IC50 [1] [nM]
1 | COc1ccc(-n2ccc3c(=O)n(CC4(O)CCN(C(=O)[C@@H]5CCNC[C@H]5c5ccccc5)CC4)cnc32)cc1 [EXAMPLE 135, 3-[[4-hydroxy-1-[(3R,4R)-3-phenylpiperidine-4-carbonyl]-4-piperidyl]methyl]-7-(4-methoxyphenyl)pyrrolo[2,3-d]pyrimidin-4-one] | 28.7 | 135
2 | COc1ccc(-n2ccc3c(=O)n(CC4(O)CCN(C(=O)[C@@H]5CCN(C(=O)OC(C)(C)C)C[C@H]5c5ccccc5)CC4)cnc32)cc1 [EXAMPLE 40, tert-butyl (3R,4R)-4-[4-hydroxy-4-[[7-(4-methoxyphenyl)-4-oxo-pyrrolo[2,3-d]pyrimidin-3-yl]methyl]piperidine-1-carbonyl]-3-phenyl-piperidine-1-carboxylate] | 49.9 | 31.5
3 | O=C([C@@H]1CCNC[C@H]1c1ccccc1)N1CCC(O)(Cn2cnc3c(ccn3-c3ccccc3)c2=O)CC1 [EXAMPLE 101, 3-[[4-hydroxy-1-[(3R,4R)-3-phenylpiperidine-4-carbonyl]-4-piperidyl]methyl]-7-phenyl-pyrrolo[2,3-d]pyrimidin-4-one] | 31.6 | 272
4 | O=C([C@@H]1CCNC[C@H]1c1ccccc1)N1CCC(O)(Cn2cnc3c(cnn3-c3ccccc3)c2=O)CC1 [EXAMPLE 103, 5-[[4-hydroxy-1-[(3R,4R)-3-phenylpiperidine-4-carbonyl]-4-piperidyl]methyl]-1-phenyl-pyrazolo[3,4-d]pyrimidin-4-one] | 52.9 | 
5 | O=C([C@@H]1CCN(CC(F)(F)F)C[C@H]1c1ccccc1)N1CCC(O)(Cn2cnc3[nH]ccc3c2=O)CC1 [EXAMPLE 117, 3-[[4-hydroxy-1-[(3R,4R)-3-phenyl-1-(2,2,2-trifluoroethyl)piperidine-4-carbonyl]-4-piperidyl]methyl]-7H-pyrrolo[2,3-d]pyrimidin-4-one] | 1200 | 
6 | CC(C)(C)OC(=O)N1CC[C@@H](C(=O)N2CCC(O)(Cn3cnc4c(ccn4-c4ccccn4)c3=O)CC2)[C@H](c2ccccc2)C1 [EXAMPLE 15, tert-butyl (3R,4R)-4-[4-hydroxy-4-[[4-oxo-7-(2-pyridyl)pyrrolo[2,3-d]pyrimidin-3-yl]methyl]piperidine-1-carbonyl]-3-phenyl-piperidine-1-carboxylate] | 274 | 

Continued, in another order:

Row | IC50 [2] [nM] | SMILES | IC50 [1] [nM]
7 | 19.6 | O=C([C@@H]1CCNC[C@H]1c1ccccc1)N1CCC(O)(Cn2cnc3c(cnn3-c3ccc4c(c3)OCCO4)c2=O)CC1 [EXAMPLE 165, 1-(2,3-dihydro-1,4-benzodioxin-6-yl)-5-[[4-hydroxy-1-[(3R,4R)-3-phenylpiperidine-4-carbonyl]-4-piperidyl]methyl]pyrazolo[3,4-d]pyrimidin-4-one] | 300
8 | 48.6 | CN1CC[C@@H](C(=O)N2CCC(O)(Cn3cnc4c(ccn4-c4ccc(Cl)cc4)c3=O)CC2)[C@H](c2ccccc2)C1 [EXAMPLE 153, 7-(4-chlorophenyl)-3-[[4-hydroxy-1-[(3R,4R)-1-methyl-3-phenyl-piperidine-4-carbonyl]-4-piperidyl]methyl]pyrrolo[2,3-d]pyrimidin-4-one] | 74.7
9 | 48.6 | COc1cccc(-n2ccc3c(=O)n(CC4(O)CCN(C(=O)[C@@H]5CCNC[C@H]5c5ccccc5)CC4)cnc32)c1 [EXAMPLE 136, 3-[[4-hydroxy-1-[(3R,4R)-3-phenylpiperidine-4-carbonyl]-4-piperidyl]methyl]-7-(3-methoxyphenyl)pyrrolo[2,3-d]pyrimidin-4-one] | 
